Experimental data: paper PMC10916382, “Repurposing screen identifies novel candidates for broad-spectrum coronavirus antivirals and druggable host targets” (Antimicrobial Agents and Chemotherapy, 2024)
pIC50: −log10 of the molar value. Counter-ions that a name gives are not always drawn. Like-named read-outs stand apart in the source and are kept apart here.

Columns and labels:
Huh-7.5/F-Luc cells = conditions: for % cell viability at max. dose [5 µM]: at max. dose 5 µM
HCoV-229E = assay: microbe, parasite or virus in culture; assay type: cell-based, Homo sapiens sapiens
[1] = Calu-3 cells, immunofluorescence imaging
[2] = Huh-7.5 cells, dose series, maximum tested dose 5 µM
[3] = Anti-SARS-CoV-2 screening on Calu-3 cells: viability [% of control], Calu-3 cells
[4] = Human coronavirus 229E, Huh7.5, read-out: IC50
[5] = HCoV 229E infection, dose series, max. dose 5 µM, read-out: IC50

SMILES	Anti-SARS-CoV-2 screening on Calu-3 cells: intracellular SARS-CoV-2 infection measured via immunofluorescence imaging [% of control] (SARS-CoV-2; [1])	CC50 (µM) (Huh-7.5/F-Luc cells; [2])	pIC50 (HCoV-229E; Human coronavirus 229E, Huh7.5)	viability (in vitro; [3]) [%]	other results
CCN(CC)CCN(Cc1ccc(-c2ccc(C(F)(F)F)cc2)cc1)C(=O)Cn1c(SCc2ccc(F)cc2)nc(=O)c2c1CCC2 [Darapladib]	107.62 % of control	greater than maximum tested dose	6.52	–	viability at 48 h, 5 µM (in vitro): 103%
CC(C)(C)NC[C@H](O)COc1ccccc1C1CCCC1 [penbutolol]	102.38 % of control	greater than maximum tested dose	5.98	–	viability at 48 h, 5 µM (in vitro): 101%
Oc1ccc2c(c1)CC[C@H](c1ccccc1)[C@@H]2c1ccc(OCCN2CCCC2)cc1 [Lasofoxifene]	119.41 % of control	greater than maximum tested dose	6.12	92.8	–
CS[C@H]1SC[C@H]2C(=O)N(C)[C@@H](C(C)C)C(=O)OC[C@@H](NC(=O)c3cnc4ccccc4n3)C(=O)N[C@@H](C)C(=O)N(C)[C@@H]1C(=O)N(C)[C@@H](C(C)C)C(=O)OC[C@@H](NC(=O)c1cnc3ccccc3n1)C(=O)N[C@@H](C)C(=O)N2C [Echinomycin]	92.25 % of control	greater than maximum tested dose	–	–	viability (in vitro): 95.2%; pIC50 (HCoV-229E; [4]): 7.00
CC(C)(C)c1cnc(CSc2cnc(NC(=O)C3CCNCC3)s2)o1 [SNS-032]	132.10 % of control	greater than maximum tested dose	6.68	39.8	–
CNCc1ccc(OC)c([C@]2(N3CCC[C@H]3c3ncco3)C(=O)N(S(=O)(=O)c3ccc(OC)cc3)c3ccc(Cl)cc32)c1 [RFM-011-200-5]	106.10 % of control	greater than maximum tested dose	6.15	117	–
CO[C@@H]1[C@H](O)C[C@@H](O[C@@H]2C[C@H](Oc3cc4cc5c(c(O)c4c(O)c3C)C(=O)[C@@H](O[C@H]3C[C@@H](O[C@H]4C[C@@H](O[C@H]6C[C@](C)(O)[C@@H](OC(C)=O)[C@H](C)O6)[C@H](O)[C@@H](C)O4)[C@H](O)[C@@H](C)O3)[C@H]([C@H](OC)C(=O)[C@@H](O)[C@@H](C)O)C5)O[C@H](C)[C@@H]2OC(C)=O)O[C@@H]1C [CHROMOMYCIN A3]	60.39 % of control	greater than maximum tested dose	–	61.3	pIC50 (HCoV-229E; [4]): 6.80
CN(C)c1ccc(C(=C2C=CC(=[N+](C)C)C=C2)c2ccc(N(C)C)cc2)cc1 [Gentian violet, reference compound]	6.34 % of control	greater than maximum tested dose	6.92	–	total cell numbers (SARS-CoV-2; Calu-3 cells, 5 µM, DAPI, relative to DMSO): ≥ 75%; reduction of infected cell numbers (SARS-CoV-2; Calu-3 cells, 5 µM, N protein immunofluorescence, relative to DMSO): more than 50%; viability at 48 h, 5 µM (in vitro): 101%
CC(C)(C)NCc1ccc(Nc2ccnc3cc(Cl)ccc23)cc1O [N-tert-Butylisoquine]	111.10 % of control	greater than maximum tested dose	6.27	106	–
CC/C(=C(\c1ccc(O)cc1)c1ccc(OCCN(C)C)cc1)c1ccccc1 [Afimoxifene]	100.60 % of control	greater than maximum tested dose	6.20	93.4	–
Cc1ccc(Sc2ccccc2N2CCNCC2)c(C)c1 [Vortioxetine hydrobromide]	101.64 % of control	greater than maximum tested dose	6.00	82.8	–
CN1CCC(CNc2ccc3ncc(-c4cccc(OC(F)(F)F)c4)n3n2)CC1 [SGI-1776]	100.18 % of control	greater than maximum tested dose	6.25	94.5	–
CCOc1cc2c(c(F)c1OCC)C(=N)N(CC(=O)c1cc(N3CCOCC3)c(OC)c(C(C)(C)C)c1)C2 [atopaxar]	107.54 % of control	greater than maximum tested dose	6.31	81.4	–
COCC(=O)O[C@]1(CCN(C)CCCc2nc3ccccc3[nH]2)CCc2cc(F)ccc2[C@@H]1C(C)C [mibefradil dihydrochloride]	108.00 % of control	greater than maximum tested dose	5.99	98.3	–
COc1ccc2c(c1)CCC(c1ccccc1)=C2c1ccc(OCCN2CCCC2)cc1 [nafoxidine]	104.91 % of control	greater than maximum tested dose	6.43	–	viability at 48 h, 5 µM (in vitro): 110%
CC(C)(Cc1ccc2ccccc2c1)NC[C@@H](O)COc1cccc(Cl)c1C#N [SB 262470]	110.66 % of control	greater than maximum tested dose	6.02	106	–
COc1cccc2c1C(=O)c1c(O)c3c(c(O)c1C2=O)C[C@@](O)(C(=O)CO)C[C@@H]3O[C@H]1C[C@H](N2CCO[C@H](OC)C2)[C@H](O)[C@H](C)O1 [NEMORUBICIN]	46.15 % of control	greater than maximum tested dose	–	–	viability (in vitro): 16.5%; pIC50 (HCoV-229E; [4]): 6.77
CC/C(=C(\c1ccccc1)c1ccc(OCCN(C)C)cc1)c1ccccc1 [Tamoxifen citrate]	–	–	–	–	Anti-SARS-CoV-2 screening on Calu-3 cells: intracellular SARS-CoV-2 infection measured via immunofluorescence imaging [% of control] (SARS-CoV-2): 106.52 % of control; viability at 48 h, 5 µM (in vitro): 102%; CC50 (µM) (Huh-7.5/F-Luc cells): greater than maximum tested dose
CN[C@H]1CC[C@@H](c2ccc(Cl)c(Cl)c2)c2ccccc21 [sertraline hydrochloride]	–	–	–	–	Anti-SARS-CoV-2 screening on Calu-3 cells: intracellular SARS-CoV-2 infection measured via immunofluorescence imaging [% of control] (SARS-CoV-2): 122.16 % of control; viability at 48 h, 5 µM (in vitro): 101%; CC50 (µM) (Huh-7.5/F-Luc cells): greater than maximum tested dose
CCN(CC)CCOc1ccc(/C(=C(/Cl)c2ccccc2)c2ccccc2)cc1 [enclomiphene citrate]	–	–	–	–	Anti-SARS-CoV-2 screening on Calu-3 cells: intracellular SARS-CoV-2 infection measured via immunofluorescence imaging [% of control] (SARS-CoV-2): 91.35 % of control; viability at 48 h, 5 µM (in vitro): 102%; CC50 (µM) (Huh-7.5/F-Luc cells): greater than maximum tested dose
O=S(=O)(Nc1ccc(CCNC[C@H](O)c2cccnc2)cc1)c1ccc(-c2nc(-c3ccc(C(F)(F)F)cc3)cs2)cc1 [L 796568]	111.47 % of control	greater than maximum tested dose	–	–	Anti-SARS-CoV-2 screening on Calu-3 cells: viability [% of control] (SARS-CoV-2; Calu-3 cells): 84.86 % of control; % cell viability at max. dose [5 µM] (Huh-7.5/F-Luc cells): 149.63%; pIC50 (HCoV-229E; [5]): 6.11
CCN(CC)CCCN1c2ccccc2Sc2ccc(Cl)cc21.Cl [Chlorproethazine HCl]	133.96 % of control	greater than maximum tested dose	–	–	Anti-SARS-CoV-2 screening on Calu-3 cells: viability [% of control] (SARS-CoV-2; Calu-3 cells): 91.47 % of control; % cell viability at max. dose [5 µM] (Huh-7.5/F-Luc cells): 142.02%; pIC50 (HCoV-229E; [5]): 6.08
CC[C@H](NC(=O)[C@H](CS(=O)(=O)CC1CC1)N[C@@H](c1ccc(F)cc1)C(F)(F)F)C(=O)C(=O)NC1CC1 [VBY-825, reference compound]	101.42 % of control	greater than maximum tested dose	–	–	Anti-SARS-CoV-2 screening on Calu-3 cells: viability [% of control] (SARS-CoV-2; Calu-3 cells): 100.68 % of control; % cell viability at max. dose [5 µM] (Huh-7.5/F-Luc cells): 147.45%; pIC50 (HCoV-229E; [5]): 6.68; antiviral activity against HCoV-229E (HCoV-229E; Huh-7.5/F-Luc cells): antiviral activity
c1ccc(CCCC(Oc2ccccc2OCc2ccccc2)C2=NCCN2)cc1 (stereo not shown) [MDL 102588]	108.93 % of control	greater than maximum tested dose	–	–	Anti-SARS-CoV-2 screening on Calu-3 cells: viability [% of control] (SARS-CoV-2; Calu-3 cells): 101.49 % of control; % cell viability at max. dose [5 µM] (Huh-7.5/F-Luc cells): 109.08%; pIC50 (HCoV-229E; [5]): 6.28
